Assay results reported in PubChem BioAssay (NCI).
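Five concentrations, 48 hours, 96-well plates. Abbreviation: GI50, concentration required for 50% inhibition of growth. Definition used: TGI = concentration required for complete inhibition of growth.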 Where a SMILES comes first, the peptide text is derived from it.

What was measured:
Assay in all cases: DTP human tumour cell line panel, 48 h
786-0 renal = test system: 786-0 renal
A498 renal = test system: A498 renal
A549 NSCLC = test system: A549 NSCLC
ACHN renal = test system: ACHN renal
BT-549 breast = test system: BT-549 breast
CAKI-1 renal = test system: CAKI-1 renal
CCRF-CEM leukemia = test system: CCRF-CEM leukemia
COLO 205 colon = test system: COLO 205 colon
DU-145 prostate = test system: DU-145 prostate
EKVX NSCLC = test system: EKVX NSCLC
HCT-116 colon = test system: HCT-116 colon
HCT-15 colon = test system: HCT-15 colon
HL-60(TB) leukemia = test system: HL-60(TB) leukemia
HOP-62 NSCLC = test system: HOP-62 NSCLC
HOP-92 NSCLC = test system: HOP-92 NSCLC
HS 578T breast = test system: HS 578T breast
HT29 colon = test system: HT29 colon
IGROV1 ovarian = test system: IGROV1 ovarian
K-562 leukemia = test system: K-562 leukemia
KM12 colon = test system: KM12 colon
LOX IMVI melanoma = test system: LOX IMVI melanoma
M14 melanoma = test system: M14 melanoma
MALME-3M melanoma = test system: MALME-3M melanoma
MCF7 breast = test system: MCF7 breast
MDA-MB-231 breast = test system: MDA-MB-231 breast
MDA-MB-435 = test system: MDA-MB-435
MDA-N = test system: MDA-N
MOLT-4 leukemia = test system: MOLT-4 leukemia
NCI-H226 lung = test system: NCI-H226 lung
NCI-H23 lung = test system: NCI-H23 lung
NCI-H460 lung = test system: NCI-H460 lung
NCI-H522 lung = test system: NCI-H522 lung
NCI/ADR-RES ovarian = test system: NCI/ADR-RES ovarian
OVCAR-3 ovarian = test system: OVCAR-3 ovarian
OVCAR-4 ovarian = test system: OVCAR-4 ovarian
OVCAR-5 ovarian = test system: OVCAR-5 ovarian
OVCAR-8 ovarian = test system: OVCAR-8 ovarian
PC-3 prostate = test system: PC-3 prostate
RPMI-8226 leukemia = test system: RPMI-8226 leukemia
RXF 393 renal = test system: RXF 393 renal
SF-268 CNS = test system: SF-268 CNS
SF-295 CNS = test system: SF-295 CNS
SK-MEL-2 melanoma = test system: SK-MEL-2 melanoma
SK-MEL-28 melanoma = test system: SK-MEL-28 melanoma
SK-MEL-5 melanoma = test system: SK-MEL-5 melanoma
SK-OV-3 ovarian = test system: SK-OV-3 ovarian
SN12C renal = test system: SN12C renal
SNB-19 CNS = test system: SNB-19 CNS
SNB-75 CNS = test system: SNB-75 CNS
SR leukemia = test system: SR leukemia
SW-620 colon = test system: SW-620 colon
T-47D breast = test system: T-47D breast
TK-10 renal = test system: TK-10 renal
U251 CNS = test system: U251 CNS
UACC-257 melanoma = test system: UACC-257 melanoma
UACC-62 melanoma = test system: UACC-62 melanoma
UO-31 renal = test system: UO-31 renal
SF-539 CNS = test system: SF-539 CNS

Work on `[Cu+2].[NH-]C(CC(=O)O)C(=O)O.[NH-]C(CC(=O)O)C(=O)O` (centres undefined) yielded a GI50 (786-0 renal) of over 100 µM, a TGI (786-0 renal) of over 100 µM and a GI50 (A498 renal) of 36.7 µM. The TGI (A498 renal) was over 100 µM, the GI50 (A549 NSCLC) was 52.1 µM and the TGI (A549 NSCLC) was over 100 µM. It also gave a GI50 (ACHN renal) of over 100 µM, a TGI (ACHN renal) of over 100 µM and a GI50 (BT-549 breast) of over 100 µM. It also gave a TGI (BT-549 breast) of over 100 µM, a GI50 (CAKI-1 renal) of over 100 µM and a TGI (CAKI-1 renal) of over 100 µM. For the same molecule, the GI50 (CCRF-CEM leukemia) was 0.929 µM, the TGI (CCRF-CEM leukemia) was over 100 µM and the GI50 (COLO 205 colon) was over 100 µM. It also gave a TGI (COLO 205 colon) of over 100 µM, a GI50 (DU-145 prostate) of over 100 µM and a TGI (DU-145 prostate) of over 100 µM. The GI50 (EKVX NSCLC) was over 100 µM, the TGI (EKVX NSCLC) was over 100 µM and the GI50 (HCT-116 colon) was over 100 µM. The TGI (HCT-116 colon) was over 100 µM, the GI50 (HCT-15 colon) was over 100 µM and the TGI (HCT-15 colon) was over 100 µM. For the same molecule, the GI50 (HL-60(TB) leukemia) was over 100 µM, the TGI (HL-60(TB) leukemia) was over 100 µM and the GI50 (HOP-62 NSCLC) was over 100 µM. The TGI (HOP-62 NSCLC) was over 100 µM, the GI50 (HOP-92 NSCLC) was over 100 µM and the TGI (HOP-92 NSCLC) was over 100 µM. For the same molecule, the GI50 (HS 578T breast) was over 100 µM, the TGI (HS 578T breast) was over 100 µM and the GI50 (HT29 colon) was over 100 µM. For the same molecule, the TGI (HT29 colon) was over 100 µM, the GI50 (IGROV1 ovarian) was over 100 µM and the TGI (IGROV1 ovarian) was over 100 µM. The GI50 (K-562 leukemia) was over 100 µM, the TGI (K-562 leukemia) was over 100 µM and the GI50 (KM12 colon) was over 100 µM. The TGI (KM12 colon) was over 100 µM, the GI50 (LOX IMVI melanoma) was over 100 µM and the TGI (LOX IMVI melanoma) was over 100 µM. It also gave a GI50 (M14 melanoma) of over 100 µM, a TGI (M14 melanoma) of over 100 µM and a GI50 (MALME-3M melanoma) of over 100 µM. It also gave a TGI (MALME-3M melanoma) of over 100 µM, a GI50 (MCF7 breast) of 52.3 µM and a TGI (MCF7 breast) of over 100 µM. For the same molecule, the GI50 (MDA-MB-231 breast) was over 100 µM, the TGI (MDA-MB-231 breast) was over 100 µM and the GI50 (MDA-MB-435) was 40.2 µM. For the same molecule, the TGI (MDA-MB-435) was over 100 µM, the GI50 (MDA-N) was over 100 µM and the TGI (MDA-N) was over 100 µM. For the same molecule, the GI50 (MOLT-4 leukemia) was over 100 µM, the TGI (MOLT-4 leukemia) was over 100 µM and the GI50 (NCI-H226 lung) was over 100 µM. It also gave a TGI (NCI-H226 lung) of over 100 µM, a GI50 (NCI-H23 lung) of over 100 µM and a TGI (NCI-H23 lung) of over 100 µM. It also gave a GI50 (NCI-H460 lung) of over 100 µM, a TGI (NCI-H460 lung) of over 100 µM and a GI50 (NCI-H522 lung) of 91.8 µM. For the same molecule, the TGI (NCI-H522 lung) was over 100 µM, the GI50 (NCI/ADR-RES ovarian) was over 100 µM and the TGI (NCI/ADR-RES ovarian) was over 100 µM. For the same molecule, the GI50 (OVCAR-3 ovarian) was over 100 µM, the TGI (OVCAR-3 ovarian) was over 100 µM and the GI50 (OVCAR-4 ovarian) was 99.2 µM. The TGI (OVCAR-4 ovarian) was over 100 µM, the GI50 (OVCAR-5 ovarian) was over 100 µM and the TGI (OVCAR-5 ovarian) was over 100 µM. The GI50 (OVCAR-8 ovarian) was over 100 µM, the TGI (OVCAR-8 ovarian) was over 100 µM and the GI50 (PC-3 prostate) was over 100 µM. The TGI (PC-3 prostate) was over 100 µM, the GI50 (RPMI-8226 leukemia) was over 100 µM and the TGI (RPMI-8226 leukemia) was over 100 µM. For the same molecule, the GI50 (RXF 393 renal) was over 100 µM, the TGI (RXF 393 renal) was over 100 µM and the GI50 (SF-268 CNS) was over 100 µM. The TGI (SF-268 CNS) was over 100 µM, the GI50 (SF-295 CNS) was over 100 µM and the TGI (SF-295 CNS) was over 100 µM. It also gave a GI50 (SK-MEL-2 melanoma) of over 100 µM, a TGI (SK-MEL-2 melanoma) of over 100 µM and a GI50 (SK-MEL-28 melanoma) of over 100 µM. The TGI (SK-MEL-28 melanoma) was over 100 µM, the GI50 (SK-MEL-5 melanoma) was 26.5 µM and the TGI (SK-MEL-5 melanoma) was over 100 µM. For the same molecule, the GI50 (SK-OV-3 ovarian) was over 100 µM, the TGI (SK-OV-3 ovarian) was over 100 µM and the GI50 (SN12C renal) was over 100 µM. It also gave a TGI (SN12C renal) of over 100 µM, a GI50 (SNB-19 CNS) of 49.5 µM and a TGI (SNB-19 CNS) of over 100 µM. For the same molecule, the GI50 (SNB-75 CNS) was over 100 µM, the TGI (SNB-75 CNS) was over 100 µM and the GI50 (SR leukemia) was over 100 µM. It also gave a TGI (SR leukemia) of over 100 µM, a GI50 (SW-620 colon) of over 100 µM and a TGI (SW-620 colon) of over 100 µM. The GI50 (T-47D breast) was over 100 µM, the TGI (T-47D breast) was over 100 µM and the GI50 (TK-10 renal) was over 100 µM. For the same molecule, the TGI (TK-10 renal) was over 100 µM, the GI50 (U251 CNS) was over 100 µM and the TGI (U251 CNS) was over 100 µM. For the same molecule, the GI50 (UACC-257 melanoma) was over 100 µM, the TGI (UACC-257 melanoma) was over 100 µM and the GI50 (UACC-62 melanoma) was over 100 µM. For the same molecule, the TGI (UACC-62 melanoma) was over 100 µM, the GI50 (UO-31 renal) was over 100 µM and the TGI (UO-31 renal) was over 100 µM.

Work on `CCC(C)C(NC(=O)C(CC(C)C)NC(=O)CNC(=O)C(NC(=O)C1CCCN1C(=O)C(CC(C)C)NC(=O)C(N)Cc1ccccc1)C(C)CC)C(=O)NC(CC(C)C)C(N)=O` (centres undefined) (H-FLPIGLIL-NH2; configuration not given here) yielded a TGI (786-0 renal) of over 75 µM, a TGI (A498 renal) of over 75 µM and a TGI (A549 NSCLC) of over 75 µM. The TGI (ACHN renal) was over 75 µM, the TGI (BT-549 breast) was over 75 µM and the TGI (CAKI-1 renal) was over 75 µM. For the same molecule, the TGI (CCRF-CEM leukemia) was over 75 µM, the TGI (COLO 205 colon) was over 75 µM and the TGI (DU-145 prostate) was over 75 µM. For the same molecule, the TGI (EKVX NSCLC) was over 75 µM, the TGI (HCT-116 colon) was over 75 µM and the TGI (HCT-15 colon) was over 75 µM. For the same molecule, the TGI (HL-60(TB) leukemia) was over 75 µM, the TGI (HOP-62 NSCLC) was over 75 µM and the TGI (HOP-92 NSCLC) was over 75 µM. The TGI (HS 578T breast) was over 75 µM, the TGI (HT29 colon) was over 75 µM and the TGI (IGROV1 ovarian) was over 75 µM. It also gave a TGI (K-562 leukemia) of over 75 µM, a TGI (KM12 colon) of over 75 µM and a TGI (LOX IMVI melanoma) of over 75 µM. It also gave a TGI (M14 melanoma) of over 75 µM, a TGI (MALME-3M melanoma) of over 75 µM and a TGI (MCF7 breast) of over 75 µM. The TGI (MDA-MB-231 breast) was over 75 µM, the TGI (MDA-MB-435) was over 75 µM and the TGI (MDA-N) was over 75 µM. The TGI (MOLT-4 leukemia) was over 75 µM, the TGI (NCI-H226 lung) was over 75 µM and the TGI (NCI-H23 lung) was over 75 µM. For the same molecule, the TGI (NCI-H522 lung) was over 75 µM, the TGI (NCI/ADR-RES ovarian) was over 75 µM and the TGI (OVCAR-3 ovarian) was over 75 µM. The TGI (OVCAR-4 ovarian) was over 75 µM, the TGI (OVCAR-5 ovarian) was over 75 µM and the TGI (OVCAR-8 ovarian) was over 75 µM. It also gave a TGI (PC-3 prostate) of over 75 µM, a TGI (RPMI-8226 leukemia) of over 75 µM and a TGI (SF-268 CNS) of over 75 µM. For the same molecule, the TGI (SF-295 CNS) was over 75 µM, the TGI (SF-539 CNS) was over 75 µM and the TGI (SK-MEL-2 melanoma) was over 75 µM. For the same molecule, the TGI (SK-MEL-28 melanoma) was over 75 µM, the TGI (SK-MEL-5 melanoma) was over 75 µM and the TGI (SK-OV-3 ovarian) was over 75 µM. It also gave a TGI (SN12C renal) of over 75 µM, a TGI (SNB-19 CNS) of over 75 µM and a TGI (SR leukemia) of over 75 µM. It also gave a TGI (SW-620 colon) of over 75 µM, a TGI (T-47D breast) of over 75 µM and a TGI (TK-10 renal) of over 75 µM. It also gave a TGI (U251 CNS) of over 75 µM, a TGI (UACC-257 melanoma) of over 75 µM and a TGI (UACC-62 melanoma) of over 75 µM. It also gave a TGI (UO-31 renal) of over 75 µM.
